Laboratory results published in patent publication US9695155B2, “Herbicidal substituted pyrimidinyloxy benzene compounds” (E. I. DU PONT DE NEMOURS AND COMPANY, priority 2013, dated 2017).

Assays:
[1] = system: ragweed; test: Test A postemergence; format: in vivo, Ambrosia elatior; conditions: 0 to 100 scale, 0 no effect, 100 complete control
Procedure, shortened: (§1)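 Scoring: eye-based comparison with untreated controls, 0 for no effect through 100 for complete control, at about day 10. Treatments: directed soil spray preemergence; foliar spray postemergence on 2–10 cm plants at the one- to two-leaf stage. Medium: loam soil with sand.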

[2] = system: Heteranthera limosa; test: Test B flooded paddy test; format: in vivo; conditions: Flood, 250 g ai/ha; 0 to 100 scale where 0 is no effect and 100 is complete control
Procedure, shortened: (§2)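 Compound added straight to paddy water, with pots kept flooded 3 cm above soil, on plants grown to the 2-leaf stage. Visual scoring 0-100 (100 = complete control) against untreated controls after 13 to 15 greenhouse days.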

[3] = system: giant foxtail; test: Test A postemergence; format: in vivo, Setaria faberii; conditions: 0 to 100 scale, 0 no effect, 100 complete control
Procedure, shortened: as §1

[4] = system: pigweed; test: Test A preemergence; format: in vivo, Amaranthus retroflexus; conditions: for Plant response rating, Pigweed: 31 g ai/ha, 0 to 100 scale where 0 is no effect and 100 is complete control, visual, approximately 10 days; for Pigweed plant response rating (0 to 100 scale): 125 g ai/ha
Procedure, shortened: as §1

[5] = system: kochia; test: Test A preemergence; format: in vivo, Kochia scoparia; conditions: for Plant response rating, Kochia: 31 g ai/ha, 0 to 100 scale where 0 is no effect and 100 is complete control, visual, approximately 10 days; for Kochia plant response rating (0 to 100 scale): 125 g ai/ha
Procedure, shortened: as §1

[6] = system: blackgrass; test: Test A postemergence; format: in vivo, Alopecurus myosuroides; conditions: 0 to 100 scale, 0 no effect, 100 complete control
Procedure, shortened: as §1

[7] = system: giant foxtail; test: Test A preemergence; format: in vivo, Setaria faberii; conditions: for Plant response rating, Foxtail, Giant: 31 g ai/ha, 0 to 100 scale where 0 is no effect and 100 is complete control, visual, approximately 10 days; for Foxtail, Giant plant response rating (0 to 100 scale): 125 g ai/ha
Procedure, shortened: as §1

[8] = system: corn; test: Test A postemergence; format: in vivo, Zea mays; conditions: 0 to 100 scale, 0 no effect, 100 complete control
Procedure, shortened: as §1

[9] = system: ragweed; test: Test A preemergence; format: in vivo, Ambrosia elatior; conditions: for Plant response rating, Ragweed: 31 g ai/ha, 0 to 100 scale where 0 is no effect and 100 is complete control, visual, approximately 10 days; for Ragweed plant response rating (0 to 100 scale): 125 g ai/ha
Procedure, shortened: as §1

[10] = system: rice; test: Test B flooded paddy test; format: in vivo, Oryza sativa; conditions: Flood, 250 g ai/ha; 0 to 100 scale where 0 is no effect and 100 is complete control
Procedure, shortened: as §2

[11] = system: kochia; test: Test A postemergence; format: in vivo, Kochia scoparia; conditions: 0 to 100 scale, 0 no effect, 100 complete control
Procedure, shortened: as §1

[12] = system: pigweed; test: Test A postemergence; format: in vivo, Amaranthus retroflexus; conditions: 0 to 100 scale, 0 no effect, 100 complete control
Procedure, shortened: as §1

[13] = system: wheat; test: Test A postemergence; format: in vivo, Triticum aestivum; conditions: 0 to 100 scale, 0 no effect, 100 complete control
Procedure, shortened: as §1

[14] = system: galium; test: Test A postemergence; format: in vivo, Galium aparine; conditions: 0 to 100 scale, 0 no effect, 100 complete control
Procedure, shortened: as §1

[15] = system: sedge, umbrella; test: Test B flooded paddy test; format: in vivo, Cyperus difformis; conditions: Flood, 250 g ai/ha; 0 to 100 scale where 0 is no effect and 100 is complete control
Procedure, shortened: as §2

[16] = system: barnyardgrass; test: Test A postemergence; format: in vivo, Echinochloa crus-galli; conditions: 0 to 100 scale, 0 no effect, 100 complete control
Procedure, shortened: as §1

[17] = system: barnyardgrass; test: Test A preemergence; format: in vivo, Echinochloa crus-galli; conditions: for Plant response rating, Barnyardgrass: 31 g ai/ha, 0 to 100 scale where 0 is no effect and 100 is complete control, visual, approximately 10 days; for Barnyardgrass plant response rating (0 to 100 scale, 0 is no effect, 100 is complete control): 125 g ai/ha
Procedure, shortened: as §1

[18] = system: Italian ryegrass; test: Test A preemergence; format: in vivo, Lolium multiflorum; conditions: for Plant response rating, Ryegrass, Italian: 31 g ai/ha, 0 to 100 scale where 0 is no effect and 100 is complete control, visual, approximately 10 days; for Ryegrass, Italian plant response rating (0 to 100 scale): 125 g ai/ha
Procedure, shortened: as §1

[19] = system: barnyardgrass; test: Test B flooded paddy test; format: in vivo, Echinochloa crus-galli; conditions: Flood, 250 g ai/ha; 0 to 100 scale where 0 is no effect and 100 is complete control
Procedure, shortened: as §2

[20] = system: Italian ryegrass; test: Test A postemergence; format: in vivo, Lolium multiflorum; conditions: 0 to 100 scale, 0 no effect, 100 complete control
Procedure, shortened: as §1

[21] = 1000 g ai/ha, 0 to 100 scale, 0 no effect, 100 complete control, approx. 10 days

Fc1cccc(Oc2ncc(Cl)cn2)c1-n1ccnn1 [Compound 159]
70: Plant response rating, Barnyardgrass ([16]; 1000 g ai/ha)
100: Pigweed plant response rating [4, 21] | Kochia plant response rating [5, 21] | Foxtail, Giant plant response rating [7, 21] | Ragweed plant response rating [9, 21] | Plant response rating, Kochia ([11]; 1000 g ai/ha) | Plant response rating, Pigweed ([12]; 1000 g ai/ha) | Barnyardgrass plant response rating [17, 21]
40: Plant response rating, Corn ([8]; 1000 g ai/ha)
80: Plant response rating, Ragweed ([1]; 1000 g ai/ha)
90: Plant response rating, Foxtail, Giant ([3]; 1000 g ai/ha) | Plant response rating, Galium ([14]; 1000 g ai/ha)
0: Plant response rating, Ducksalad [2] | Plant response rating, Rice [10] | Plant response rating, Sedge, Umbrella [15] | Plant response rating, Barnyardgrass [19]
50: Plant response rating, Blackgrass ([6]; 1000 g ai/ha)
30: Plant response rating, Wheat ([13]; 1000 g ai/ha) | Ryegrass, Italian plant response rating [18, 21] | Plant response rating, Ryegrass, Italian ([20]; 1000 g ai/ha)

Fc1cnc(Oc2ccccc2-n2cc(OCC(F)(F)F)cn2)nc1 [Compound 241]
100: Pigweed plant response rating (0 to 100 scale) [4] | Kochia plant response rating (0 to 100 scale) [5] | Foxtail, Giant plant response rating (0 to 100 scale) [7]
10: Plant response rating, Ragweed ([1]; 31 g ai/ha) | Plant response rating, Corn ([8]; 125 g ai/ha) | Plant response rating, Wheat ([13]; 125 g ai/ha) | Plant response rating, Barnyardgrass ([16]; 125 g ai/ha) | Plant response rating, Barnyardgrass [17]
60: Plant response rating, Galium ([14]; 125 g ai/ha) | Barnyardgrass plant response rating (0 to 100 scale, 0 is no effect, 100 is complete control) [17]
20: Plant response rating, Foxtail, Giant ([3]; 125 g ai/ha) | Plant response rating, Blackgrass ([6]; 125 g ai/ha)
30: Plant response rating, Ragweed ([1]; 125 g ai/ha)
50: Plant response rating, Kochia [5] | Plant response rating, Foxtail, Giant [7] | Plant response rating, Kochia ([11]; 31 g ai/ha)
90: Plant response rating, Kochia ([11]; 125 g ai/ha)
0: Plant response rating, Foxtail, Giant ([3]; 31 g ai/ha) | Plant response rating, Blackgrass ([6]; 31 g ai/ha) | Plant response rating, Corn ([8]; 31 g ai/ha) | Plant response rating, Ragweed [9] | Plant response rating, Rice [10] | Plant response rating, Wheat ([13]; 31 g ai/ha) | Plant response rating, Sedge, Umbrella [15] | Plant response rating, Barnyardgrass ([16]; 31 g ai/ha) | Plant response rating, Ryegrass, Italian [18] | Ryegrass, Italian plant response rating (0 to 100 scale) [18] | Plant response rating, Barnyardgrass [19] | Plant response rating, Ryegrass, Italian ([20]; 31 g ai/ha) | Plant response rating, Ryegrass, Italian ([20]; 125 g ai/ha)
40: Plant response rating, Ducksalad [2] | Ragweed plant response rating (0 to 100 scale) [9] | Plant response rating, Pigweed ([12]; 31 g ai/ha) | Plant response rating, Galium ([14]; 31 g ai/ha)
80: Plant response rating, Pigweed [4] | Plant response rating, Pigweed ([12]; 125 g ai/ha)

N#Cc1cnn(-c2c(CF)cccc2Oc2ncc(Cl)cn2)c1 [Compound 242]
50: Plant response rating, Ragweed ([1]; 125 g ai/ha) | Plant response rating, Foxtail, Giant ([3]; 125 g ai/ha) | Plant response rating, Ragweed [9]
10: Plant response rating, Galium ([14]; 31 g ai/ha)
60: Plant response rating, Corn ([8]; 125 g ai/ha) | Plant response rating, Wheat ([13]; 125 g ai/ha) | Plant response rating, Barnyardgrass ([16]; 125 g ai/ha)
0: Plant response rating, Foxtail, Giant ([3]; 31 g ai/ha) | Plant response rating, Corn ([8]; 31 g ai/ha) | Plant response rating, Rice [10] | Plant response rating, Wheat ([13]; 31 g ai/ha) | Plant response rating, Barnyardgrass ([16]; 31 g ai/ha) | Plant response rating, Ryegrass, Italian [18] | Ryegrass, Italian plant response rating (0 to 100 scale) [18] | Plant response rating, Ryegrass, Italian ([20]; 31 g ai/ha)
80: Ragweed plant response rating (0 to 100 scale) [9] | Plant response rating, Kochia ([11]; 125 g ai/ha) | Plant response rating, Pigweed ([12]; 125 g ai/ha)
90: Plant response rating, Pigweed [4] | Plant response rating, Blackgrass ([6]; 125 g ai/ha)
75: Plant response rating, Sedge, Umbrella [15]
30: Plant response rating, Kochia [5] | Plant response rating, Blackgrass ([6]; 31 g ai/ha) | Plant response rating, Kochia ([11]; 31 g ai/ha) | Plant response rating, Pigweed ([12]; 31 g ai/ha) | Plant response rating, Galium ([14]; 125 g ai/ha) | Plant response rating, Ryegrass, Italian ([20]; 125 g ai/ha)
20: Plant response rating, Ragweed ([1]; 31 g ai/ha) | Plant response rating, Barnyardgrass [17] | Plant response rating, Barnyardgrass [19]
100: Pigweed plant response rating (0 to 100 scale) [4] | Kochia plant response rating (0 to 100 scale) [5] | Plant response rating, Foxtail, Giant [7] | Foxtail, Giant plant response rating (0 to 100 scale) [7]
70: Plant response rating, Ducksalad [2] | Barnyardgrass plant response rating (0 to 100 scale, 0 is no effect, 100 is complete control) [17]
